Experimental data as given in patent US20240325385A1, “ANTI-TUMOR PHARMACEUTICAL COMPOSITION COMPRISING EZH2 INHIBITOR AND SCD1 INHIBITOR AND USE THEREOF” (PEKING UNIVERSITY THIRD HOSPITAL, priority 2021, published 2024).
“Also recorded” adds a separate entry of the source.

Legend:
[1] = system: hepatoma Huh7 cells; assay: IncuCyte S3 live-cell proliferation (confluence), Huh7; format: cell-based
Protocol: (§1) FIG. 1: Hematological tumors are more sensitive to GSK126 than solid tumors. (A) Proliferation of B16F10, Huh7 and SMMC7721 cells in GSK126 (10-20 μM) treatment group was monitored by Incucyte S3, with 6 replicates per group; (B) viability of Daudi and THP-1 cells after GSK126 (200 nM-24 μM) treatment for 24 h and 48 h was measured by CCK-8 assay, with 5 replicates per group; (C) western blot analysis (WB) of B16F10 cells 48 h after the treatment without or with GSK126 (6 μM, 12 μM), with H3 used as an internal reference for histone. 5 to 6 replicates were established for each group, with *P<0.05, **P<0.01, and ***P<0.001, and ns for no statistical difference.
(§2) In order to accurately assess the responsiveness of solid tumor cells to EZH2 inhibitors, the effects of GSK126 at different concentrations on the proliferation of melanoma B16F10 cells and hepatoma Huh7 and SMMC-7721 cells were initially detected by IncuCyte S3×Live-Cell Analysis System.
(§3) • (1) Cells in the logarithmic growth phase were digested with 0.25% trypsin and the digestion was terminated by the addition of serum-containing medium. It was then centrifuged at 200 g for 5 min; • (2) The single cell suspension at the corresponding concentration was prepared by a microscopic counting method, and then added into a 96-well culture plate, so that the volume of the culture medium in each well was 150 μL (about 5000 cells). […]

[2] = system: Burkitt lymphoma cells (Daudi); assay: CCK-8 cell proliferation/viability assay, Daudi; format: cell-based; details: for cell viability inhibited by GSK126, on fatty acid supplementation: with GSK126, CCK-8
Protocol: as §1
(§4) FIG. 5: Effect of GSK126 on the metabolic profile of Daudi cells. (A) Orthogonal partial least squares discriminant analysis (OPLS-DA) score plot based on metabolic analysis (6 replicates per group). C: control, G: GSK126 treatment. (B) Score plot for validating the OPLS-DA model (R2Y=0.973; Q2Y=0.931). (C) The number of metabolites of each category in metabolomics. […] (E) Viability of Daudi cells after palmitic acid treatment was analyzed by CCK-8 kit (3 replicates per group). 3-6 replicates per group, *P<0.05, **P<0.01.
(§5) FIG. 6: The combination with an SCD1 inhibitor enhances the inhibitory effect of GSK126 on cancer cells. (A) Differential metabolites between DMSO and GSK126-treated Daudi cells. […] Metabolite categories are shown in different colors. […] (C) The mRNA levels of lipid metabolism genes in GSK126-treated Daudi cells were detected by RT-qPCR (3 replicates per group). (D) Viability of GSK126 and palmitinic acid-treated Daudi cells was analyzed by CCK-8 assay kit (5 replicates per group). (E) Viability of GSK126 and stearic acid-treated Daudi cells was analyzed by CCK-8 assay kit (5 replicates per group). (F) Proliferation curves of B16F10 and SMMC7721 cells treated with GSK126 and MF-438 were monitored by IncuCyte S3 (5 replicates per group). (G) CCK-8 assay kit detects the viability of B16F10 and SMMC7721 cells treated with GSK126 and MF-438. CI is calculated by CompuSyn software. CI<0.9 indicates synergism and CI>1.1 indicates antagonism. (H) Schematic diagram of mouse tumor-bearing experiment. (I-J) Tumor weight (I) and tumor growth curve (J) of the mice loaded with B16F10 cells. The tumor volume was measured with a vernier caliper every 2 days. Tumor volume=(length*width*width)/2. (K) Representative tumor pictures of all experimental groups. 3-8 replicates per group, *P<0.05, **P<0.01, ***P<0.001.

[3] = system: hepatoma SMMC-7721 cells; assay: IncuCyte S3 live-cell proliferation (confluence), SMMC-7721; format: cell-based
Protocol: as §1, §2, §3

[4] = system: H3K27me3 level in B16F10 cells; assay: Western blot of H3K27me3 in B16F10 cells; format: cell-based; details: 6 μM, 48 h, WB
Protocol: as §1

[5] = system: Daudi cells; assay: UPLC-MS/MS metabolomics of Daudi cells; format: cell-based; details: GSK126 6 μM vs control
Protocol: as §4, §5
In order to verify that the lipid metabolism of cancer cells is the key factor affecting the sensitivity of the EZH2 inhibitor, UPLC-MS/MS system was used to analyze the metabolomics of the Daudi cells treated with GSK126 at a concentration of 6 μM (close to the IC50 value). The differences in the metabolome between the cells in the control group and the GSK126 treatment group were obvious by OPLS-DA analysis (sections A and B of FIG. 5). There were 71 metabolites with significant changes and VIP values greater than 1.0.

[6] = system: ACLY, FASN, and SCD in SMMC7721; assay: RT-qPCR and WB of fatty acid synthesis genes, SMMC7721; format: cell-based
From the text: (§6) FIG. 4: Lipid accumulation in mice after GSK126 treatment. (A) H & E and oil red O staining of the liver tissue sections of the tumor-bearing mice in the control group and the GSK126 treatment group, in which the statistical results of negative or positive staining area were shown on the right (3 replicates per group); (B) TG level in the serum of the tumor-bearing mice in the control group and the GSK126 treatment group (5 replicates per group); (C-D) mRNA (C) and protein (D) levels of the genes related to fatty acid anabolism in the GSK126-treated HCC cells, as detected by RT-qPCR and WB (3 replicates per group). 3 to 5 replicates were established for each group, with *P<0.05, **P<0.01.
(§7) C57BL/6 mice of 6-8 weeks old were subcutaneously implanted with B16F10 cells and treated with GSK126 again. […] Therefore, the expression of the fatty acid synthesis-related genes in GSK126-treated hepatocellular carcinoma (HCC) cell lines SMMC7721 and Huh7 was further detected.

[7] = system: hematologic cancer cell lines; details: most hematologic cancer cell lines; many studies; read-out: IC50 (half-maximal inhibitory concentration); cited from earlier work
[8] = system: melanoma B16F10 cells; assay: Metabolite (fatty acid) levels in GSK126-treated B16F10 cells; format: cell-based; details: GSK126 group
From the text: FIG. 3: GSK126 results in significant elevated levels of 6 fatty acids in melanoma B16F10 cells.
Among the metabolites with significant changes, the levels of many fatty acids increased in the GSK126 group. There are five polyunsaturated fatty acids, including α-linolenic acid, DHA, EPA, linoleic acid, and γ-linolenic acid) and one monounsaturated fatty acid, i.e., 10Z-heptadienoic acid (FIG. 3).

[9] = system: hematological tumor cells THP-1; assay: CCK-8 cell proliferation/viability assay, THP-1; format: cell-based; details: 10 μM, 24 h and 48 h
Protocol: as §1

[10] = system: melanoma cells B16F10; assay: Cell scratch (migration) assay, B16F10; format: cell-based; details: B16F10, 10 μM, 36 h of culture, vs control group
Protocol: (§8) FIG. 2: Melanoma cells B16F10 are less sensitive to GSK126. (A) Cell scratch assay, showing the effect of GSK126 (10 μM) treatment on the migration capability of B16F10 cells, with 3 replicates per group; (B-C) the effect of GSK126 (10, 13, and 15 μM) on the apoptosis rate of B16F10 cells, as examined by flow cytometry […] and Annexin V staining assay. 3 replicates were established for each group, with *P<0.05, **P<0.01, and ***P<0.001, and ns for no statistical difference.
(§9) Next, to further validate the effect of GSK126 at 10 μM on melanoma cells B16F10, scratch assay was conducted. […] In addition, to assess the anti-survival effect of GSK126, B16F10 cells were treated by GSK126 at different concentrations for different durations, and the apoptosis rate of the cells was analyzed by flow cytometry (section B of FIG. 2) and live-cell fluorescence imaging (section C of FIG. 2).

[11] = system: ACLY, FASN, and SCD in Huh7; assay: RT-qPCR and WB of fatty acid synthesis genes, Huh7; format: cell-based
From the text: as §6, §7

[12] = system: melanoma B16F10 cells; assay: IncuCyte S3 live-cell proliferation (confluence), B16F10; format: cell-based
Protocol: as §1, §2, §3

[13] = system: B16F10 cells; assay: Apoptosis by flow cytometry and Annexin V live-cell imaging, B16F10; format: cell-based; details: B16F10, 10 μM
Protocol: as §8, §9

[14] = system: ELOVL2, SCD1, and FASN in Daudi cells; assay: RT-qPCR of lipid metabolism genes in Daudi cells; format: cell-based; details: mRNA
Protocol: as §5, with “***P<0.001. […]” for “***P<0.001.”

[15] = GSK126 at different concentrations (10-20 μM)

CC[C@H](C)n1cc(C)c2c(C(=O)NCc3c(C)cc(C)[nH]c3=O)cc(-c3ccc(N4CCNCC4)nc3)cc21 [GSK126]
cell proliferation ([1]; GSK126 10 μM): less effective
cell proliferation [1, 15]: inhibited cell proliferation in a dose-dependent manner
sensitivity of Daudi cells ([2]; 1 μM, CCK-8): very sensitive
proliferation of Daudi cells ([2]; 10 μM, 24 h and 48 h, CCK-8): significantly inhibited
IC50 ([2]; Daudi cells): ~6 µM
cell proliferation ([3]; GSK126 10 μM): less effective
cell proliferation [3, 15]: inhibited cell proliferation in a dose-dependent manner
H3K27me3 level [4]: significantly down-regulated
down-regulated metabolites [5]: 6
fatty acids (incl. ricinoleic acid, DPA n-6) [5]: four fatty acids decreased
metabolites with significant changes and VIP values greater than 1.0 [5]: 71
up-regulated metabolites [5]: 65
mRNA and protein levels of ACLY, FASN, and SCD [6]: significantly elevated
IC50 [7]: < 1 µM
levels of fatty acids (five polyunsaturated, one monounsaturated) [8]: increased
proliferation of THP-1 cells [9]: significantly inhibited
cell migration [10]: did not effectively inhibit cell migration
mRNA and protein levels of ACLY, FASN, and SCD [11]: significantly elevated
cell proliferation ([12]; GSK126 10 μM): less effective; also recorded: could not be effectively inhibited
cell proliferation [12, 15]: inhibited cell proliferation in a dose-dependent manner
induction of apoptosis [13]: limited capability to induce apoptosis
expression of ELOVL2, SCD1, and FASN [14]: did not upregulate

CCCCCCCCCCCCCCCC(=O)O [palmitic acid]
cell proliferation (viability) on fatty acid addition ([2]; Daudi cells, CCK-8): moderately promoted
cell viability inhibited by GSK126, on fatty acid supplementation ([2]; Daudi cells): recovered the cell viability inhibited by GSK126 to varying degrees

CCCCCCCCCCCCCCCCCC(=O)O [stearic acid]
cell proliferation (viability) on fatty acid addition ([2]; Daudi cells, CCK-8): moderately promoted
cell viability inhibited by GSK126, on fatty acid supplementation ([2]; Daudi cells): recovered the cell viability inhibited by GSK126 to varying degrees
